Results as given in patent publication US8263621B2, “Tartrate derivatives for use as coagulation factor IXa inhibitors” (Sanofi, priority 2006, dated 2012).

Molecular target: T1, factor IXa (Homo sapiens, UniProt P00740)
T1 construct: Factor IX is a proenzyme; purchased Calbiochem (Merck KGaA) 233290
Experiment: Factor IXa enzyme assay (inhibition of enzymatic activity of FIXa, substrate PEFA 3107)
Format: biochemical
Conditions: 277 nM factor IXa, pH 7.4, 15 min preincubation at room temperature, read at 405 nm
Description: The prepared substances from the examples were tested for inhibition of the enzymatic activity of FIXa using the substrate PEFA 3107 (Pentapharm/Loxo; via S. Black GmbH, Baumstrasse 41, 47198 Duisburg, Germany; Pr. No. 095-20) and factor IXa (Calbiochem, Merck KGaA markets Calbiochem in Germany, Life Science & Analytics, 64293 Darmstadt; Pr. No. 233290). In this method, 28 μl of test buffer (50 mM α,α,α-tris(hydroxymethyl)methylamine (TRIS), 100 mM NaCl, 5 mM CaCl2, 0.1% bovine serum albumin, pH 7.4) and 10 μl of factor IXa (277 nM final concentration in the test batch) were added to 2 μl of 10 mM dimethyl sulfoxide solution of the respective test substance, and the mixture was incubated for 15 minutes at room temperature in a 96 half-well microtiter plate. The enzyme reaction was started by addition of 10 μl of substrate (1 mM stock solution in water). The time course of the reaction was monitored at 405 nm in a microtiter plate reader (SpectraMax plus 384; Molecular Devices) for 15 minutes. The IC50 was calculated from the averaged values (duplicate determination) of a dilution series of the test substance with the aid of the software Grafit 4 (Erithacus Software, UK). The inhibition constants (Ki) were calculated according to the Cheng Prusoff equation Ki=IC50/(1+(S/Km), where S=concentration of the test substrate in the test and Km=Michaelis-Menten constant.

T1 sequence (P00740 227-461 limits assumed): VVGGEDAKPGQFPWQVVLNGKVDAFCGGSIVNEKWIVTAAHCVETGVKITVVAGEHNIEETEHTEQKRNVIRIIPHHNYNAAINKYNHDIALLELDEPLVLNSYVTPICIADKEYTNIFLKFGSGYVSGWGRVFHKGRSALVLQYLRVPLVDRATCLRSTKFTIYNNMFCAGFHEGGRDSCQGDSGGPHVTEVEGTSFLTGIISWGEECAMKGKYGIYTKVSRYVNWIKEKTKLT
T1 sequence (P00740 47-191 partner limits assumed): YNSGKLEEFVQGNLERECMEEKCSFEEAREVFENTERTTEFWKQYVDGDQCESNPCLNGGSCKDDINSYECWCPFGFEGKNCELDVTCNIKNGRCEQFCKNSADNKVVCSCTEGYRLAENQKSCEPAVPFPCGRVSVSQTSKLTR

Row | Structure (SMILES) | IC50 [nM]
1 | Cc1ccc(NC(=O)[C@H](O)[C@@H](O)C(=O)Nc2ccc3c(N)nccc3c2)cc1 [Example 1, (2R,3R)—N-(1-Aminoisoquinolin-6-yl)-2,3-dihydroxy-N′-p-tolyltartaramide; compound with trifluoroacetic acid] | 220
2 | Cc1ccc(NC(=O)[C@H](O)[C@@H](O)C(=O)Nc2ccc(C(=N)N)cc2)cc1 [Example 5, (2R,3R)—N-(4-Carbamimidoylphenyl)-2,3-dihydroxy-N′-p-tolylsuccinamide; compound with trifluoroacetic acid] | 170
3 | Nc1nc2ccc(NC(=O)[C@H](O)[C@@H](O)C(=O)Nc3ccc(Oc4ccccc4)cc3)cc2[nH]1 [Example 12, (2R,3R)—N-(2-amino-3H-benzimidazol-5-yl)-2,3-dihydroxy-N′-(4-phenoxyphenyl)-tartaramide] | 370
